Reference: patent US11311514B2, “Pharmaceutical composition for preventing or treating pruritus, containing pyrazole derivative as active ingredient, and screening method for detecting same” (Seoul National University R&DB Foundation, priority 2017, dated 2022)

Key:
histamine mouse model = experiment: Pruritus evaluation in histamine mouse model; assay type: in vivo, C57BL6 mice; settings: 30 mg/kg intraperitoneal, 30 min before histamine 500 μg s.c. dorsal; control group 118.38
Procedure: (§1) Seven week-old C57BL6 mice were placed in a new cage and adapted for 30 minutes before starting the experiment. As for the control group, 3% DMSO was dissolved in physiological saline (0.9% saline), which was intraperitoneally injected (50 ? /mouse). The animal model mice were intraperitoneally injected with the pharmaceutical composition of Example 1 (30 mg/kg) dissolved in physiological saline (0.9% saline) containing 3% DMSO (50 ? /mouse). The mice were also ? placed in the same cage above for 30 minutes.
(§2) Then, control and animal model mice were subcutaneously injected with 500 μg/50 ? of histamine on the dorsal side, and their behaviors were recorded with a digital video camera for 30 minutes. The number of scratches was recorded while playing back the recorded video file on a computer. A continuous action of scratching the skin from when the mouse lifted its hind foot off the floor and to when the mouse put it back on the floor was considered 1 scratch, and the number of scratches counted for 30 minutes was used as index for evaluating pruritus.

mouse motor ability = experiment: Rota rod motor condition test; assay type: in vivo; settings: 30 mg/kg intraperitoneal, tested after 30 minutes; Rota rod speed 4 to 40
Procedure: The test mouse was placed on the Rota rod device and then the speed was raised from 4 to 40 until the mouse fell. When the mouse fell, it was moved to a cage. The procedure was repeated three times a day for 3 consecutive days to adapt the mouse to the Rota rod device. After three days of adaptation, the mouse was moved to a cage where it was stabilized.
As for the control group, 3% DMSO was dissolved in physiological saline (0.9% saline), which was intraperitoneally injected (50 ? /mouse). The animal model mice were intraperitoneally injected with the pharmaceutical composition of Example 1 (30 mg/kg) dissolved in physiological saline (0.9% saline) containing 3% DMSO (50 ? /mouse). The mice were also placed in the same cage above for 30 minutes. The experiment above was repeated three times like the adaptation test above, and the average time of falling was calculated.

[1] = biological target: T1, human histamine 1 receptor (hH1R) (Homo sapiens, UniProt P35367); experiment: Human histamine 1 receptor antagonist assay (calcium dye fluorescence, histamine-stimulated); assay type: cell-based; settings: HEK 293T cells transiently expressing hH1R; final 12 μM compound, 1 μM histamine, 0.2% DMSO; control 5 μM diphenhydramine; read-out: reduction of fluorescence, taking the inhibition by histamine plus diphenhydramine as 100%
T1 construct: expressed in transfected cells; host or cells: HEK 293T cells, transient transfection
T1 sequence (P35367 whole entry): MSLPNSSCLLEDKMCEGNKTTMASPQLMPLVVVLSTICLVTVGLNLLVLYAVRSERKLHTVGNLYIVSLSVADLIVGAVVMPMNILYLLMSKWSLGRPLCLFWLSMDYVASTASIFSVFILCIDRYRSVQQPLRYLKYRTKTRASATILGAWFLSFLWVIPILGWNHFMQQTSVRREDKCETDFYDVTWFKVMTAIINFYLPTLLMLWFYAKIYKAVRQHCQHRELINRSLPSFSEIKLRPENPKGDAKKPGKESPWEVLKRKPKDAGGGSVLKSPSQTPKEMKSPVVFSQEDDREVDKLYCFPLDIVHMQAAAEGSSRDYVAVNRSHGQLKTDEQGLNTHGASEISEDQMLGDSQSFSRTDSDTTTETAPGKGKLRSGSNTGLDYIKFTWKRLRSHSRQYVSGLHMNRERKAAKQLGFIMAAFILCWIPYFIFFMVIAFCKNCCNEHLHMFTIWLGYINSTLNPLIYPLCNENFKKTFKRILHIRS
Procedure: HEK 293T cells were transiently transfected with 2 μg of human histamine 1 receptor, followed by seeding at the density of 4000 cells/well. The cells were cultured in a 37° C., 5% CO2 incubator for 48 hours.
The subsequent procedure was performed using Biomex FX. After eliminating the medium, flo-3 AM dye dissolved in Na-HEPES buffer (5 mM KCl, 2 mM MgCl2, 140 mM NaCl, 10 mM NaOH-HEPES, pH7.2) at the concentration of 2.5 μM was added to the plate (25 ? /well) of the vehicle and experimental groups, and flo-3 AM dye dissolved in Na-HEPES buffer containing 5 uM diphenhydramine dissolved therein at the concentration of 2.5 μM was added to the plate (25 ? /well) of the control group, followed by culture in a 37° C., 5% CO2 incubator for 30 minutes.
During the culture, a compound plate was prepared. […]
Upon completion of the incubation, dye was discarded and Na-HEPES buffer was added thereto (25 ? /well) for washing, and then buffer was added thereto (25 ? /well) again (excluding control group wells). […] Finally, 25 ? of the compound was added to each well of the assay plate containing 25 ? of buffer, followed by reading the plate (final 12 μM compound, 1 μM histamine, 0.2% DMSO).
The experimental results were analyzed using a microplate reader (Flexstaion Π^384, Molecular Devices). Fluorescence assay was performed (Ex 488 nm, Em 535 nm) at the intervals of 3.2 seconds for 80 seconds. […]

MRGPR X1 = biological target: T2, MRGPR X1 (Homo sapiens, UniProt Q96LB2); experiment: MRGPR X1 screening assay (calcium dye fluorescence, chloroquine-stimulated); assay type: cell-based; settings: Mrgpr X1 stable HEK 293T FRT cells; final 12 μM compound, 500 μM chloroquine, 0.2% DMSO
T2 construct: expressed in transfected cells
T2 sequence (Q96LB2 whole entry): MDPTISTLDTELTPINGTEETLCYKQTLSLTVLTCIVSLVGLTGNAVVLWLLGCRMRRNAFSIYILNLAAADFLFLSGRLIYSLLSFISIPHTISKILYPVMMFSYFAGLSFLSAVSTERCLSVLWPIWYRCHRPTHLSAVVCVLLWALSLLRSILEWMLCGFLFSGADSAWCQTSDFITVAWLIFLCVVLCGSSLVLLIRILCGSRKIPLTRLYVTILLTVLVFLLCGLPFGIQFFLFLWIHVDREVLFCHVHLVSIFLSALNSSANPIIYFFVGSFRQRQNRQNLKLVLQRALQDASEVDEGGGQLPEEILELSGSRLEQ
Procedure: Human MRGPRX1 gene was sub-cloned in pcDNA5 FRT vector, which was transfected into HEK 293T FRT cells. The cells were cultured in a 37° C., 5% CO2 incubator for 48 hours.
To confirm the amount with which a single colony is well formed, the transfected cells were serially diluted and then transferred and distributed on 100 mm dish evenly. The medium was replaced with a fresh medium containing 50/g/ ? of hygromycin every 3-4 days. The cells were cultured until colonies were formed.
Once colonies were formed, only a single colony was transferred to a 24 well plate, followed by culture. Then, well grown cells were transferred to a 6 well plate, followed by culture. Antibiotic selection was performed. […]
First, MRGPR X1 stable cells were counted to make 8000 cells/well, followed by seeding in a Poly-D-Lysine coated plate 384 well black/clear plate. […]
Upon completion of the incubation, dye was discarded and Na-HEPES buffer was added thereto (25 ? /well) for washing, and then buffer was added thereto (25 ? /well) again. 25 ? of the primary candidate material was added to each well of the assay plate containing 25 ? of buffer, followed by reading the plate (final 12 μM compound, 500 μM chloroquine, 0.2% DMSO). […]
The experimental results were analyzed using a microplate reader (Flexstaion Π^384, Molecular Devices). […]

dry skin mouse model = experiment: Pruritus evaluation in dry skin mouse model; assay type: in vivo, C57BL6 mice; settings: 30 mg/kg intraperitoneal on Day 5 of acetone/ether/water treatment; recorded 30 min later; control group 130.00
Procedure: First, a dry skin mouse model was constructed. A dry skin mouse model was prepared according to the instruction described Jpn J Pharmacol. 2002 March; 88(3):285-92. ENTOBAR® was mixed with physiological saline (0.9% saline) at the ratio of 1:1, which was intraperitoneally injected in 7-week-old C57BL6 mice (20 ? /mouse) to anesthetize the mice. Then, the hair of the right nape was shaved using a clipper. Ethyl ether and acetone were mixed at the ratio of 1:1. The mixture was soaked in absorbent cotton and the right nape was rubbed with the absorbent cotton for 1 minute. Then, absorbent cotton soaked with water was used to rub in the same way. This process was performed once in the morning and once in the afternoon for 5 days.
as §2, with “Next, pruritus evaluation in the dry skin mouse model was performed. In the afternoon on Day 5, the” for “Then,”, “group” for “and animal model”, “intraperitoneally” for “subcutaneously”, “3% DMSO dissolved in physiological saline (0.9% saline) (50” for “500 μg/50”, “/mouse). […] 30 minutes later,” for “of histamine on the dorsal side, and”, “digital” for “digital video”

[2] = Solubility in blood (selection of final compound); assay type: physicochemical; settings: result in words; no method given
chloroquine mouse model = experiment: Pruritus evaluation in chloroquine mouse model; assay type: in vivo, C57BL6 mice; settings: 30 mg/kg intraperitoneal, 30 min before chloroquine 200 μg s.c. dorsal; control group 425.00
Procedure: as §1
as §2, with “200” for “500”, “chloroquine” for “histamine”

[3] = system: psoriatic mouse model (Aldara cream, 5% imiquimod); experiment: Pruritus evaluation in psoriatic mouse model; assay type: in vivo, C57BL6 mice; settings: 30 mg/kg intraperitoneal on day 8 after 7 days Aldara cream; counted for 30 minutes; normal group 20.00, control group 71.00
Procedure: First, a psoriatic mouse model was constructed. A psoriatic mouse model was prepared according to the instruction described Pain. 2016 November; 2536-2543. Zoletil (15 mg/kg) was mixed with saline at the ratio of 1:1 and then mixed with Rompun (5 mg/kg), which was intraperitoneally injected in 7-week-old C57BL6 mice to anesthetize the mice. The mouse back was primarily depilated in the size of 2.5×2 cm using a clipper, and then secondly depilated using a straight blade. Vaseline cream was rubbed on the depilated area of the normal group for 7 days using a cotton swap. Aldara cream (62.5 mg, 5% imiquimod) was rubbed on the depilated area of the control group and the experimental group for 7 days using a cotton swap.
as §2, with “Next, pruritus evaluation in the psoriatic mouse model was performed. On day 8, the normal group and” for “Then,”, “group” for “and animal model”, “intraperitoneally” for “subcutaneously”, “3% DMSO dissolved in physiological saline (0.9% saline) (50” for “500 μg/50”, “/mouse). […] 30 minutes later,” for “of histamine on the dorsal side, and”, “digital” for “digital video”

inhibition at 12 µM [1]: ~94% | decline of fluorescence analysis result versus chloroquine alone (MRGPR X1): approximately 54% | solubility in blood [2]: excellent solubility in blood
Compound: Cc1ccc(-n2nc(C)cc2C(=O)NCCCC(=O)O)cc1 [Example 1]
average number of total scratches accumulated for 30 minutes (histamine mouse model): 39.90 times | motor condition ability (average time of falling) versus control group (mouse motor ability): no significant difference | average number of total scratches accumulated for 30 minutes (dry skin mouse model): 14.00 times | average number of total scratches accumulated for 30 minutes (chloroquine mouse model): 150.50 times | average number of total scratches [3]: 1.00
